Tests used:
Assay in all cases: Test C greenhouse herbicide test, pre- and postemergence
Type in all cases: in vivo
[1] = system: oilseed rape (Brassica napus)
Source text: (§1) Seeds of plant species selected from blackgrass (Alopecurus myosuroides), ryegrass, Italian (Italian ryegrass, Lolium multiflorum), wheat (winter wheat, Triticum aestivum), galium (catchweed bedstraw, Galium aparine), corn (Zea mays), large crabgrass, large (large crabgrass, Digitaria sanguinalis), foxtail, giant (giant foxtail, Setaria faberii), johnsongrass (Sorghum halepense), lambsquarters (Chenopodium album), morningglory (Ipomoea coccinea), nutsedge, yellow (yellow nutsedge, Cyperus esculentus), pigweed (Amaranthus retroflexus), ragweed (common ragweed, Ambrosia elatior), soybean (Glycine max), barnyardgrass (Echinochloa crus-galli), oilseed rape (Brassica napus), waterhemp (common waterhemp, Amaranthus rudis), and velvetleaf (Abutilon theophrasti) were planted into a blend of loam soil and sand and treated preemergence with test chemicals formulated in a non-phytotoxic solvent mixture which included a surfactant.
(§2) At the same time, plants selected from these crop and weed species and also chickweed (common chickweed, Stellaria media), kochia (Kochia scoparia), and oat, wild (wild oat, Avena fatua), were planted in pots containing Redi-Earth® planting medium (Scotts Company, 14111 Scottslawn Road, Marysville, Ohio 43041) comprising spaghnum peat moss, vermiculite, wetting agent and starter nutrients and treated with postemergence applications of test chemicals formulated in the same manner. Plants ranged in height from 2 to 18 cm (1- to 4-leaf stage) for postemergence treatments. Treated plants and controls were maintained in a greenhouse for 13 to 15 d, after which time all species were compared to controls and visually evaluated. Plant response ratings, summarized in Table C, are based on a scale of 0 to 100 where 0 is no effect and 100 is complete control. A dash (-) response means no test result.

corn (Zea mays) = system: corn (Zea mays)
Source text: as §1, §2

[2] = system: galium (catchweed bedstraw, Galium aparine)
Source text: as §1, §2

[3] = system: foxtail, giant (giant foxtail, Setaria faberii)
Source text: as §1, §2

[4] = system: velvetleaf (Abutilon theophrasti)
Source text: as §1, §2

[5] = system: nutsedge, yellow (yellow nutsedge, Cyperus esculentus)
Source text: as §1, §2

[6] = system: ryegrass, Italian (Italian ryegrass, Lolium multiflorum)
Source text: as §1, §2

soybean (Glycine max) = system: soybean (Glycine max)
Source text: as §1, §2

[7] = system: barnyardgrass (Echinochloa crus-galli)
Source text: as §1, §2

[8] = system: blackgrass (Alopecurus myosuroides)
Source text: as §1, §2

[9] = system: ragweed (common ragweed, Ambrosia elatior)
Source text: as §1, §2

[10] = system: morningglory (Ipomoea coccinea)
Source text: as §1, §2

[11] = system: crabgrass, large (large crabgrass, Digitaria sanguinalis)
Source text: as §1, §2

[12] = system: lambsquarters (Chenopodium album)
Source text: as §1, §2

[13] = system: waterhemp (common waterhemp, Amaranthus rudis)
Source text: as §1, §2

[14] = Postemergence, 31 g ai/ha, 0 to 100 scale (0 no effect, 100 complete control)
[15] = Postemergence, 125 g ai/ha, scale 0 to 100, 0 is no effect, 100 is complete control
[16] = Postemergence, 250 g ai/ha, scale 0 to 100, 0 no effect, 100 complete control, 13 to 15 d
[17] = Preemergence, 31 g ai/ha, scale 0 to 100, 0 is no effect, 100 is complete control
[18] = Preemergence, 62 g ai/ha, scale 0 to 100, 0 is no effect, 100 is complete control
[19] = Preemergence, 125 g ai/ha, scale 0 to 100, 0 is no effect, 100 is complete control
[20] = Preemergence, 250 g ai/ha, scale 0 to 100, 0 no effect, 100 complete control
[21] = postemergence, 62 g ai/ha, scale 0 to 100, 0 no effect, 100 complete control

Compound: Cc1ccc2ccccc2c1-c1c(O)c(Br)nn(C)c1=O [Compound 23]
- Oilseed Rape plant response rating [1, 14]: 5
- Plant response rating, Oilseed Rape [1, 15]: 45
- Plant response rating, Oilseed Rape [1, 16]: 10
- Plant response rating, Oilseed Rape [1, 17]: 50
- Plant response rating, Oilseed Rape [1, 18]: 90
- Plant response rating, Oilseed Rape [1, 19]: 90
- Oilseed Rape plant response rating [1, 20]: 100
- Oilseed Rape plant response rating [1, 21]: 15
- Corn plant response rating (corn (Zea mays); [14]): 10
- Plant response rating, Corn (corn (Zea mays); [15]): 10
- Plant response rating, Corn (corn (Zea mays); [16]): 25
- Plant response rating, Corn (corn (Zea mays); [17]): 0
- Plant response rating, Corn (corn (Zea mays); [18]): 0
- Plant response rating, Corn (corn (Zea mays); [19]): 30
- Corn plant response rating (corn (Zea mays); [20]): 65
- Corn plant response rating (corn (Zea mays); [21]): 30
- Galium plant response rating [2, 14]: 95
- Plant response rating, Galium [2, 15]: 100
- Plant response rating, Galium [2, 16]: 100
- Plant response rating, Galium [2, 17]: 98
- Plant response rating, Galium [2, 18]: 100
- Plant response rating, Galium [2, 19]: 100
- Galium plant response rating [2, 20]: 100
- Galium plant response rating [2, 21]: 100
- Foxtail, Giant plant response rating [3, 14]: 30
- Plant response rating, Foxtail, Giant [3, 15]: 85
- Plant response rating, Foxtail, Giant [3, 16]: 90
- Plant response rating, Foxtail, Giant [3, 17]: 30
- Plant response rating, Foxtail, Giant [3, 18]: 85
- Plant response rating, Foxtail, Giant [3, 19]: 85
- Foxtail, Giant plant response rating [3, 20]: 100
- Foxtail, Giant plant response rating [3, 21]: 65
- Velvetleaf plant response rating [4, 14]: 70
- Plant response rating, Velvetleaf [4, 15]: 85
- Plant response rating, Velvetleaf [4, 16]: 90
- Plant response rating, Velvetleaf [4, 18]: 90
- Plant response rating, Velvetleaf [4, 19]: 100
- Velvetleaf plant response rating [4, 20]: 100
- Velvetleaf plant response rating [4, 21]: 85
- Nutsedge, Yellow plant response rating [5, 14]: 60
- Plant response rating, Nutsedge, Yellow [5, 15]: 85
- Plant response rating, Nutsedge, Yellow [5, 16]: 85
- Plant response rating, Nutsedge, Yellow [5, 17]: 40
- Plant response rating, Nutsedge, Yellow [5, 18]: 90
- Plant response rating, Nutsedge, Yellow [5, 19]: 85
- Nutsedge, Yellow plant response rating [5, 20]: 90
- Nutsedge, Yellow plant response rating [5, 21]: 70
- Ryegrass, Italian plant response rating [6, 14]: 85
- Plant response rating, Ryegrass, Italian [6, 15]: 95
- Plant response rating, Ryegrass, Italian [6, 16]: 95
- Plant response rating, Ryegrass, Italian [6, 17]: 85
- Plant response rating, Ryegrass, Italian [6, 18]: 90
- Plant response rating, Ryegrass, Italian [6, 19]: 95
- Ryegrass, Italian plant response rating [6, 20]: 95
- Ryegrass, Italian plant response rating [6, 21]: 90
- Soybean plant response rating (soybean (Glycine max); [14]): 5
- Plant response rating, Soybean (soybean (Glycine max); [15]): 10
- Plant response rating, Soybean (soybean (Glycine max); [16]): 15
- Plant response rating, Soybean (soybean (Glycine max); [18]): 0
- Plant response rating, Soybean (soybean (Glycine max); [19]): 5
- Soybean plant response rating (soybean (Glycine max); [20]): 55
- Soybean plant response rating (soybean (Glycine max); [21]): 10
- Barnyardgrass plant response rating [7, 14]: 40
- Plant response rating, Barnyardgrass [7, 15]: 75
- Plant response rating, Barnyardgrass [7, 16]: 85
- Plant response rating, Barnyardgrass [7, 17]: 10
- Plant response rating, Barnyardgrass [7, 18]: 85
- Plant response rating, Barnyardgrass [7, 19]: 85
- Barnyardgrass plant response rating [7, 20]: 85
- Barnyardgrass plant response rating [7, 21]: 60
- Blackgrass plant response rating [8, 14]: 50
- Plant response rating, Blackgrass [8, 15]: 70
- Plant response rating, Blackgrass [8, 16]: 85
- Plant response rating, Blackgrass [8, 17]: 45
- Plant response rating, Blackgrass [8, 18]: 85
- Plant response rating, Blackgrass [8, 19]: 90
- Blackgrass plant response rating [8, 20]: 90
- Blackgrass plant response rating [8, 21]: 60
- Ragweed plant response rating [9, 14]: 85
- Plant response rating, Ragweed [9, 15]: 95
- Plant response rating, Ragweed [9, 16]: 98
- Plant response rating, Ragweed [9, 17]: 85
- Plant response rating, Ragweed [9, 18]: 85
- Plant response rating, Ragweed [9, 19]: 95
- Ragweed plant response rating [9, 20]: 90
- Ragweed plant response rating [9, 21]: 90
- Morningglory plant response rating [10, 14]: 100
- Plant response rating, Morningglory [10, 15]: 100
- Plant response rating, Morningglory [10, 16]: 100
- Plant response rating, Morningglory [10, 17]: 85
- Plant response rating, Morningglory [10, 18]: 90
- Plant response rating, Morningglory [10, 19]: 95
- Morningglory plant response rating [10, 20]: 98
- Morningglory plant response rating [10, 21]: 100
- Crabgrass, Large plant response rating [11, 14]: 5
- Plant response rating, Crabgrass, Large [11, 15]: 35
- Plant response rating, Crabgrass, Large [11, 16]: 45
- Plant response rating, Crabgrass, Large [11, 17]: 5
- Plant response rating, Crabgrass, Large [11, 18]: 45
- Plant response rating, Crabgrass, Large [11, 19]: 75
- Crabgrass, Large plant response rating [11, 20]: 95
- Crabgrass, Large plant response rating [11, 21]: 20
- Lambsquarters plant response rating [12, 14]: 85
- Plant response rating, Lambsquarters [12, 15]: 95
- Plant response rating, Lambsquarters [12, 16]: 98
- Plant response rating, Lambsquarters [12, 17]: 85
- Plant response rating, Lambsquarters [12, 18]: 85
- Plant response rating, Lambsquarters [12, 19]: 95
- Lambsquarters plant response rating [12, 20]: 95
- Lambsquarters plant response rating [12, 21]: 95
- Waterhemp plant response rating [13, 14]: 80
- Plant response rating, Waterhemp [13, 15]: 85
- Plant response rating, Waterhemp [13, 16]: 98
- Plant response rating, Waterhemp [13, 18]: 100
- Plant response rating, Waterhemp [13, 19]: 100
- Waterhemp plant response rating [13, 20]: 100
- Waterhemp plant response rating [13, 21]: 55

Compound: Cc1ccc2sc(C)c(-c3c(OC(=O)C(C)(C)C)c(C)nn(C)c3=O)c2c1 [Compound 26]
- Oilseed Rape plant response rating [1, 14]: 0
- Plant response rating, Oilseed Rape [1, 15]: 5
- Plant response rating, Oilseed Rape [1, 16]: 5
- Oilseed Rape plant response rating [1, 21]: 0
- Corn plant response rating (corn (Zea mays); [14]): 0
- Plant response rating, Corn (corn (Zea mays); [15]): 5
- Plant response rating, Corn (corn (Zea mays); [16]): 5
- Corn plant response rating (corn (Zea mays); [21]): 10
- Galium plant response rating [2, 14]: 90
- Plant response rating, Galium [2, 15]: 95
- Plant response rating, Galium [2, 16]: 95
- Galium plant response rating [2, 21]: 95
- Foxtail, Giant plant response rating [3, 14]: 15
- Plant response rating, Foxtail, Giant [3, 15]: 40
- Plant response rating, Foxtail, Giant [3, 16]: 65
- Foxtail, Giant plant response rating [3, 21]: 25
- Velvetleaf plant response rating [4, 14]: 5
- Plant response rating, Velvetleaf [4, 15]: 60
- Plant response rating, Velvetleaf [4, 16]: 70
- Velvetleaf plant response rating [4, 21]: 30
- Nutsedge, Yellow plant response rating [5, 14]: 5
- Plant response rating, Nutsedge, Yellow [5, 15]: 20
- Plant response rating, Nutsedge, Yellow [5, 16]: 25
- Nutsedge, Yellow plant response rating [5, 21]: 10
- Ryegrass, Italian plant response rating [6, 14]: 85
- Plant response rating, Ryegrass, Italian [6, 15]: 90
- Plant response rating, Ryegrass, Italian [6, 16]: 90
- Ryegrass, Italian plant response rating [6, 21]: 90
- Soybean plant response rating (soybean (Glycine max); [14]): 5
- Plant response rating, Soybean (soybean (Glycine max); [15]): 10
- Plant response rating, Soybean (soybean (Glycine max); [16]): 10
- Soybean plant response rating (soybean (Glycine max); [21]): 5
- Barnyardgrass plant response rating [7, 14]: 20
- Plant response rating, Barnyardgrass [7, 15]: 30
- Plant response rating, Barnyardgrass [7, 16]: 35
- Barnyardgrass plant response rating [7, 21]: 25
- Blackgrass plant response rating [8, 14]: 50
- Plant response rating, Blackgrass [8, 15]: 60
- Plant response rating, Blackgrass [8, 16]: 75
- Blackgrass plant response rating [8, 21]: 55
- Ragweed plant response rating [9, 14]: 15
- Plant response rating, Ragweed [9, 15]: 85
- Plant response rating, Ragweed [9, 16]: 90
- Ragweed plant response rating [9, 21]: 70
- Morningglory plant response rating [10, 14]: 98
- Plant response rating, Morningglory [10, 15]: 100
- Plant response rating, Morningglory [10, 16]: 100
- Morningglory plant response rating [10, 21]: 100
- Crabgrass, Large plant response rating [11, 14]: 5
- Plant response rating, Crabgrass, Large [11, 15]: 20
- Plant response rating, Crabgrass, Large [11, 16]: 25
- Crabgrass, Large plant response rating [11, 21]: 20
- Lambsquarters plant response rating [12, 14]: 75
- Plant response rating, Lambsquarters [12, 15]: 90
- Plant response rating, Lambsquarters [12, 16]: 98
- Lambsquarters plant response rating [12, 21]: 85
- Waterhemp plant response rating [13, 14]: 75
- Plant response rating, Waterhemp [13, 15]: 85
- Plant response rating, Waterhemp [13, 16]: 95
- Waterhemp plant response rating [13, 21]: 85
